Converted amounts (≈) assume the structure as drawn. Like-named read-outs stand apart in the source and are kept apart here.
What was measured:
Type in all cases: cell-based
S. aureus ATCC 25923 [1] = assay: Biofilm mass formation (Crystal Violet staining), S. aureus ATCC 25923 biofilm; conditions: antibiotic alone 1/4 MIC; 24 hour grown biofilm
Description: (§1) Various parameters that were evaluated in each part of the analysis include: 1) Biofilm mass formation (% inhibition—by Crystal Violet staining method); 2) Bacterial cell viability (% inhibition—by Resazurin assay); and 3) Bacterial cell growth (by Colony Counting—CFU/ml plating).
(§2) There now follows greater details about tests that show the effect of Trehalase in gram-positive bacteria (MRSA and MSSA S. aureus). […] It inhibited viability of bacterial cells in the biofilm (about 84%, about 81%, and about 63% correspondingly by Resazurin assay), and reduced the bacterial cell growth in the 24 hour biofilm (about 1.5 log by CFU/ml compared to the Control).
(§3) The experimental design for the first strain on the early biofilm included: • Strain: S. aureus ATCC25923 • Temperature: 35±2° C. • Incubation Conditions: Static • Time Points: 24 hours • Treatment: (added to well containing a suspension of S. aureus ATCC25923 ˜10^7 CFU/ml) • Solvent 1: 50% glycerol containing 1% Triton™ X-100 and 25 mM potassium phosphate, pH 6.5 • Solvent 2: 25 mM potassium phosphate, pH 6.5 • SIGMA Trehalase: 0.092 UI • Dialyzed Trehalase: 0.092 UI • Parameters Assessed: • Biofilm mass formation (staining with crystal violet 0.06%) • Cells viability (incubation with resazurin) • Cell growth by colony counting (CFU/mL) […]

S. aureus ATCC 25923 [2] = assay: Bacterial cell viability (Resazurin assay), S. aureus ATCC 25923
Description: as §1, §2
(§4) The experimental design for the first strain on the early biofilm included: • Strain: S. aureus ATCC25923 • Temperature: 35±2° C. • Incubation Conditions: Static • Time Points: 24 hours • Treatment: (added to well containing a suspension of S. aureus ATCC25923 ˜10^7 CFU/ml) • Solvent 1: 50% glycerol containing 1% Triton™ X-100 and 25 mM potassium phosphate, pH 6.5 • Solvent 2: 25 mM potassium phosphate, pH 6.5 • SIGMA Trehalase: 0.092 UI • Dialyzed Trehalase: 0.092 UI • Parameters Assessed: • Biofilm mass formation (staining with crystal violet 0.06%) • Cells viability (incubation with resazurin) • Cell growth by colony counting (CFU/mL)
as §3, with “preformed” for “early”, “Points: Preformed biofilm for 24 hours,” for “Points:”, “hours of further growth” for “hours”

S. aureus ATCC 25923 [3] = assay: Bacterial cell growth by colony counting (CFU/mL), S. aureus ATCC 25923 biofilm and planktonic cells; conditions: antibiotic alone 1/4 MIC; 24 hour grown biofilm
Description: as §1, §2, §3

S. aureus ATCC33591 [4] = assay: Biofilm mass formation, S. aureus ATCC33591 24 hour grown biofilm; conditions: Trehalase 0.092 UI/well, antibiotic 1/4 MIC; early (24 hour grown) biofilm
Description: as §1

S. aureus ATCC 25923 [5] = assay: MIC by CLSI guidelines, S. aureus ATCC 25923
Source text: There is strong reproducibility of the data generated with S. aureus ATCC25923 (similar activity among different experiments).

S. aureus ATCC33591 [6] = assay: MIC, S. aureus ATCC33591
Source text: Neither Gentamicin (GENT), nor Vancomycin (VAN) in sub-MICc doses (¼/MIC) triggered biofilm induction response.

S. aureus 3-Belgium = assay: MIC, S. aureus 3-Belgium
[7] = tested on: S. aureus strains (MSSA Oxford, MSSA ATCC 35556, MRSA ATCC 25923); assay: MIC in broth (CLSI) in the presence and absence of Trehalase, selected S. aureus strains; conditions: Trehalase 0.092 UI, 24 hours
Description: There was testing of Trehalase on Clinical Isolates (S. aureus strains: Oxford, ATCC35556, and ATCC 25923 as the reference strain) at a time-point: 24 hours of biofilm growth.
The MIC determination with selected S. aureus strains proceeded as a first step. The materials and methods included:
S. aureus strains: Oxford; ATCC35556 and ATCC25923 (as reference strain)
In vitro assay: MIC in broth (according to CLSI guidelines)
Antibiotic concentration: two-fold series dilution from 16 to 0.0078 μg/mL
Incubation: T 37° C.; static condition

P. aeruginosa PAO1 [8] = assay: Biofilm mass formation (Crystal Violet staining), P. aeruginosa PAO1 biofilm; conditions: antibiotic alone 1/4 MIC added to 24 hour preformed biofilm
P. aeruginosa PAO1 [9] = assay: Bacterial cell viability (Resazurin assay), P. aeruginosa PAO1 biofilm
Description: as §1
The “U” corresponds to the International Units for the enzyme in each testing well. This dose was further used in subsequent experiments. […] In an old stage (72 hour of growth), the biofilm formation was still inhibited by about 50.0%. […]
as §4, with “second” for “first”, “preformed” for “early”, “P. aeruginosa PAO1” for “S. aureus ATCC25923”, “Points: Preformed biofilm for 24 hours,” for “Points:”, “hours of further growth” for “hours”

[10] = GENT/VAN experiment, Trehalase 0.092 UI/well, antibiotic 1/4 MIC, 24 hour grown biofilm

| Compound | increased biofilm mass (biofilm induction response, BIR) compared to Negative Control (S. aureus ATCC 25923 [1]) | inhibition of biofilm cell viability (Resazurin assay) (S. aureus ATCC 25923 [2]; [10]) | effect on cell growth (S. aureus ATCC 25923 [3]) | inhibition / reduction of biofilm mass formation compared to Control (S. aureus ATCC33591 [4]) | MIC (S. aureus ATCC 25923 [5]) [µg/mL] | increase of biofilm mass formation (BIR) compared to Control level (P. aeruginosa PAO1 [8]) | other results |
| --- | --- | --- | --- | --- | --- | --- | --- |
| Gentamicin | two-fold | no effect | no effect | about 10% | 2 | – | MIC (S. aureus ATCC33591 [6]): 2.0 µg/mL; MIC (S. aureus 3-Belgium): 32.0 µg/mL; MIC value reduction on addition of Trehalase ([7]; clinical isolates): up to 16 fold; MIC value reduction on addition of Trehalase ([7]; reference isolates): ≤ 33 fold |
| NC[C@H]1O[C@H](O[C@H]2[C@H](O)[C@@H](O[C@H]3O[C@H](CO)[C@@H](O)[C@H](N)[C@H]3O)[C@H](N)C[C@@H]2N)[C@H](N)C[C@@H]1O [Tobramycin] | – | – | – | – | – | about 1.4 | inhibition of cell viability (Resazurin assay) (P. aeruginosa PAO1 [9]; added at beginning, antibiotic 1/4 MIC, 24 hour grown biofilm): about 25%; inhibition of cell viability (Resazurin assay) (P. aeruginosa PAO1 [9]; added at beginning, sub-MIC antibiotic, 48 hour grown biofilm): about 25% |
| CC(C)(O/N=C(\C(=O)N[C@@H]1C(=O)N2C(C(=O)[O-])=C(C[n+]3ccccc3)CS[C@H]12)c1csc(N)n1)C(=O)O [Ceftazidime] | – | – | – | – | – | about 1.6 | inhibition of cell viability (Resazurin assay) (P. aeruginosa PAO1 [9]; Pseudomonas aeruginosa, 48 h): 25-50%; inhibition of biofilm cell viability (Resazurin assay) (S. aureus ATCC 25923 [2]; Staphylococcus aureus, 24 h): about 13%; MIC (S. aureus ATCC 25923 [5]; Staphylococcus aureus, ATCC25923, read-out: MIC): 8 µg/mL (≈ 14.6 µM) |
| CN[C@H](CC(C)C)C(=O)N[C@H]1C(=O)N[C@@H](CC(N)=O)C(=O)N[C@H]2C(=O)N[C@H]3C(=O)N[C@H](C(=O)N[C@H](C(=O)O)c4cc(O)cc(O)c4-c4cc3ccc4O)[C@H](O)c3ccc(c(Cl)c3)Oc3cc2cc(c3O[C@@H]2O[C@H](CO)[C@@H](O)[C@H](O)[C@H]2O[C@H]2C[C@](C)(N)[C@H](O)[C@H](C)O2)Oc2ccc(cc2Cl)[C@H]1O [Vancomycin] | 1.8 fold | no effect | no effect | about 20% | 2.0 (≈ 1.38 µM) | – | MIC (S. aureus ATCC33591 [6]; Staphylococcus aureus, ATCC33591): 2 µg/mL (≈ 1.38 µM); MIC (S. aureus 3-Belgium; Staphylococcus aureus, 3BELGIUM): 2 µg/mL (≈ 1.38 µM); effect of addition of Trehalase on MIC [7]: No significant effect |

Source: patent publication US10758596B2, “Compositions and methods to prevent and treat biofilms” (ZIOLASE, LLC, priority 2011, dated 2020)
